The text below walks through data of patent publication US20170142962A1, “METHODS AND SOLUTIONS INCLUDING ADDITIVES AND STABILIZERS FOR KILLING OR DEACTIVATING SPORES” (EP Technologies LLC, priority 2015, published 2017).

The test system of data set [1] is C. diff spores. Nature of the data set: Example 4: direct DBD plasma treatment of acid solutions, spore inoculum in PBST with soil. The format is cell-based, Clostridium difficile. The settings on record: 0.0001% to 10% acid solutions, 3 μl, DBD 20 seconds. How it is done:
(§1) In the following examples, various treatments were applied to measure the ability of plasma-activated liquids containing various additives to kill or deactivate spores from C. diff bacteria. Briefly, a volume of 10 μl of C. diff spores in sterile water (containing approximately 10^8 colony forming units (CFUs)/ml) was added onto a sterile stainless steel disc and left to dry for 30 minutes. The contaminated surfaces were then exposed to a treatment described below. After treatment, the killing or deactivation capacity of the treatment was measured by estimating the number of surviving CFUs. Estimation of surviving CFUs was determined by placing the disc in test tubes filled with a neutralizer. The test tubes were sonicated for 1 minute and vortexed for 15 seconds to fully remove spores from the surfaces. The neutralizer solution containing spores was diluted and plated on Brain Heart Infusion Agar supplemented with 0.1% Sodium Taurocholate (BHIT). The agar plates were incubated under anaerobic conditions for 36-48 hours at 37° C. CFUs were estimated based on colony counts on the agar plates following incubation.
A direct plasma treatment (as shown in FIG. 1) with DBD was used for the testing. The direct DBD was created by a microsecond pulsed power supply which creates discrete voltage bursts at a repetition rate of 3.5 kHz which consist of decaying sinusoidal waveforms with a frequency of 32 kHz and a peak-to-peak voltage of approximately 20 kV. The gap distance between the plasma reactor and the disc was 2 mm. Spore inoculum for the stainless steel disc was prepared in 1×PBST with soil instead of sterile water. Citric acid, acetic acid, or HCl was added to water to produce 0.0001% to 10% acid solutions. 3 μl of each of these solutions was added to the spore-containing discs. After application, the discs were subjected to DBD treatment for 20 seconds.

The test system of data set [2] is C. diff spores. The experiment in a line: Example 1: direct DBD plasma treatment of EtOH, H2O2 or water solutions on spore-containing discs with soil. It counts as cell-based, Clostridium difficile. The settings on record: DBD 30 seconds, 35% EtOH, 70% EtOH, 3% H2O2. How it is done: as §1, with “incubation. A direct plasma treatment (as shown in FIG. 1) with DBD was used for the testing. The direct DBD was created by an AC sinusoidal voltage power supply with a power scale at 15 (approximately 20 kV peak-to-peak) and a driving frequency of 20.5 kHz. […]” for “incubation.”

The test system of data set [3] is C. diff spores. Nature of the data set: Example 2: direct DBD plasma treatment of differing EtOH concentrations on spore-containing discs with soil. The format is cell-based, Clostridium difficile. The settings on record: 12 μl, DBD 30 seconds. As for the experimental part:
as §1, with “incubation. A direct plasma treatment (as shown in FIG. 1) with DBD was used for the testing. […] The gap distance between the plasma reactor and the disc was 2 mm.” for “incubation.”

Data set [4] concerns C. diff spores. The experiment in a line: Example 11: plasma activated wipes used to wipe spore-containing surface. It counts as cell-based, Clostridium difficile. Conditions: mechanical removal. As for the experimental part: as §1
The subject of data set [5] is C. diff spores. The experiment in a line: Example 3: direct DBD plasma treatment of H2O2 or NaNO2 solutions, spore inoculum in PBST. The settings on record: 1, 10, 100, 500 mM, 10 μl, DBD 20 seconds, two trials, NaNO2: other than at 10 mM. The format is cell-based, Clostridium difficile. How it is done:
as §1
A direct plasma treatment (as shown in FIG. 1) with DBD was used for the testing. […]

For data set [6] the following is noted: cited from earlier work.
For data set [7] the following is noted: cited from earlier work. The source holds these as a separate data set.

Structures are written as SMILES. Where a name gives a salt, the structure may show the parent alone.

In the case of `CC(=O)O` [acetic acid], the “killing or deactivation efficiency relative to water alone” value in the data set on C. diff spores [1] is “increased the killing or deactivation efficiency”.

For the molecule `Cl` [HCl, hydrochloric acid], the “killing or deactivation efficiency relative to water alone” value with C. diff spores [1] is listed as “increased the killing or deactivation efficiency”.

In the case of `CCO` [EtOH, ethanol], the “kill or deactivation efficiency as additive in the water, versus water alone” value in the data set with C. diff spores [2] is listed as “substantially increased the kill or deactivation efficiency”. In addition, the “killing or deactivation efficiency with increased concentration” value with C. diff spores [3] was “increasing killing or deactivation efficiency”. In the data set with C. diff spores [4], the “LR of wipe without plasma activation” value is listed as roughly 0.7 LR.

For `O=C(O)CC(O)(CC(=O)O)C(=O)O` [citric acid], the “killing or deactivation efficiency relative to water alone” value in the data set on C. diff spores [1] was “increased the killing or deactivation efficiency”.

For the molecule `OO` [H2O2, hydrogen peroxide], the “kill or deactivation efficiency as additive in the water, versus water alone” value in the data set with C. diff spores [2] is recorded as “substantially increased the kill or deactivation efficiency”. For the same molecule, the “effect of increasing the concentration on killing or deactivation efficiency” value in the data set with C. diff spores [5] is “increased the killing or deactivation efficiency”. Moreover, in data set [6] (averaged over an 8-hour work shift), the “OSHA permissible exposure limit” value is 1 ppm. For the same molecule, the “AIHA ERPG-2 maximum airborne concentration” value in data set [6] (exposure up to an hour without irreversible or serious health effects) is listed as 50 ppm.

As for `O=NO` [NaNO2, sodium nitrite], the “effect of increasing the concentration on killing or deactivation efficiency” value with C. diff spores [5] is recorded as “did not increase the killing or deactivation efficiency”.

As for `O=NOO` [peroxynitrite], in data set [7], the half-life result was “around 1 second”.
